Earlier results in publication PMC4365270 (Cancer Chemotherapy and Pharmacology, 2015).

Set-up: method as in earlier work
Conditions: higher doses; cited from earlier work

Structure (SMILES): CC[C@H](NC(=O)[C@H](C)NC)C(=O)N1C[C@@H](O)C[C@H]1Cc1c(-c2[nH]c3cc(F)ccc3c2C[C@@H]2C[C@H](O)CN2C(=O)[C@H](CC)NC(=O)[C@H](C)NC)[nH]c2cc(F)ccc12 [birinapant]
- Bell’s Palsy syndrome: increased incidence
